Source: US4302448A, “Secretin preparations with intensified and protracted action, process for their manufacture, their use as well as dihydroxybenzoyl-L-tyrosine” (Hoechst Aktiengesellschaft, priority 1979, dated 1981)

Experiments:
Format in all cases: in vivo
[1] = tested on: Pancreatic juice secretion of the rat; test: Pancreatic juice secretion of the rat after subcutaneous administration of secretin with depot bodies; conditions: rat, subcutaneous, 5 CU/kg secretin + 10 mg depot body/animal; for Δ% vs. control (percentage by which the pancreatic secretion is above the basal secretion after 5 hours): control=100%, measure of depot effect; for Rel. Intensity of effect over 5 hours (total pancreatic juice secretion over 5 hours as compared with control): control (0.9% of NaCl)=1
In short: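 Fasted (18 h) male rats, 300–500 g, got secretin 5 CU/kg s.c. with 10 mg depot body in aqueous solution or suspension. Under urethane anaesthesia with pylorus ligated and bile diverted, pancreatic juice was collected by bile-duct cannula in 60-min intervals. Values: % above basal secretion at 5 h (control=100%), and 5-h total secretion relative to 0.9% NaCl control=1.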

pancreatic juice = test: Pancreatic juice production in rats after rectal administration of secretin suppository with or without depot body
Method: The intensified effect of secretin in the form of rectally administrable preparations due to the depot bodies used according to the invention becomes evident from the drawing. In a test carried out on 8 rats each weighing 0.5 kg, 100 μg of secretin in a suppository of a weight of 73 mg cause the production of 92 μl of pancreatic juice (curve 1). With the addition of 25 mg of 3,5-dihydroxybenzoyl-L-tyrosine the volume of pancreatic juice rose to 1778 μl (curve 2). This corresponds to an increase of the effect to about 20 times its original value. […] In the present case the secretin dose has been chosen very high in order to obtain a measurable volume also without additive.
With a non-maximum stimulation in the normal dose range (about half the dose), the increase of the effect is about 50-fold.

[2] = tested on: pancreatic juice secretion; test: Biological effect of rectally administered secretin measured via pancreatic juice secretion, compared with subcutaneous injection; conditions: secretin in suppositories or rectal capsules without depot body
Method: Many medicaments may be incorporated in suppositories and administered rectally. They are sufficiently well absorbed in this form. […] For example, if secretin is administered by this route, the biological effect which is measured via pancreatic juice secretion is only about 1% of the effect obtained with subcutaneous injection.

[3] = rats, rectal, 100 μg secretin + 25 mg depot body

| Compound | Δ% vs. control (percentage by which the pancreatic secretion is above the basal secretion after 5 hours) [1] [%] | Rel. Intensity of effect over 5 hours (total pancreatic juice secretion over 5 hours as compared with control) [1] | other results |
| --- | --- | --- | --- |
| O=C(N[C@@H](Cc1ccc(O)cc1)C(=O)O)c1cc(O)cc(O)c1 [3,5-Dihydroxybenzoyl-L-tyrosine] | 76 | 9.2 | volume of pancreatic juice (pancreatic juice; 8 rats of 0.5 kg, rectal, 100 μg secretin suppository with addition of 25 mg depot body (curve 2)): 1778 µL; increase in efficacy, rectal versus subcutaneous application (in words) (pancreatic juice; comparison of routes): greater increase in efficacy when applied rectally than with subcutaneous application; increase of the effect relative to original value (secretin suppository without additive) (pancreatic juice; [3]): about 20 times; protracted action (in words) (pancreatic juice; [3]): a protracted action can also be observed; increase of the effect (pancreatic juice; rectal, non-maximum stimulation in the normal dose range (about half the dose)): about 50 fold |
| Tris-(2,8-dihydroxy-3-naphthoyl)-diethylene-triamine | 94 | 9.4 |  |
| Tris-(2-hydroxybenzoyl)-diethylene-triamine | 62 | 8.1 |  |
| Tris-(3-hydroxybenzoyl)-diethylene-triamine | 71 | 8.0 |  |
| Tris-(4-hydroxybenzoyl)-diethylene-triamine | 68 | 7.8 |  |
| secretin [reference compound] |  |  | production of pancreatic juice (pancreatic juice; 8 rats of 0.5 kg, rectal, 100 μg secretin in 73 mg suppository, no additive (curve 1)): 92 µL; biological effect of rectal administration relative to effect obtained with subcutaneous injection [2]: about 1% |
